The values below come from US20070179161A1, “Pyrazolopyrimidine compounds and their use in medicine” (VERNALIS (CAMBRIDGE) LIMITED., priority 2003, published 2007).

For orientation: IC50 means the midpoint of a concentration-inhibition curve.

What all share (assay type): biochemical
For experiment [1], the target named is CDK-2 enzyme, complexed with cyclin A (Homo sapiens, UniProt P24941). As to the kind of experiment: CDK2 enzyme inhibition assay (33P phosphorylation of peptide […], filter plate). As to conditions: CDK-2/cyclin A, 0.1 mM ATP, 40 min at 30° C. The gist of the method:
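Cyclin A–complexed CDK2 (0.4 U/ml) incubated with inhibitor, 0.03 mM peptide, 0.1 mM ATP plus 33P-γ-ATP in HEPES pH 7.5, 7.5 mM Mg acetate, 0.1 mg/ml BSA, 40 min at 30 °C. Stopped with phosphoric acid; phosphorylated peptide captured on filter plates and counted by scintillation.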

Experiment [2] has as its target T1, GST-Chk1 enzyme (Homo sapiens, UniProt O14757).
T1 sequence (O14757 1-476): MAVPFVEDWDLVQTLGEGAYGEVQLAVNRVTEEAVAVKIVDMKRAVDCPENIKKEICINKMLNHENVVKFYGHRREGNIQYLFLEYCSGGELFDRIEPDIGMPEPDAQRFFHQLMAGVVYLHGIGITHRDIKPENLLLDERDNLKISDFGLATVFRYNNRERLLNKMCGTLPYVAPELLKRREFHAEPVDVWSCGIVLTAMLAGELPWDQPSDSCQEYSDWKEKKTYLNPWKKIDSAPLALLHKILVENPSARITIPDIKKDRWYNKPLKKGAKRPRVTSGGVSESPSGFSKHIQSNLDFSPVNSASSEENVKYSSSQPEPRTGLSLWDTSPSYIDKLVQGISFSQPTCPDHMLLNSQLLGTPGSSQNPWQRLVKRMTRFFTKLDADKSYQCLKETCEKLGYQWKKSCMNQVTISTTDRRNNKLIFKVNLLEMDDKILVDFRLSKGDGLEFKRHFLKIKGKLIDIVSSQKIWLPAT
As to the kind of experiment: Chk1 kinase inhibition assay (33P phosphorylation of Chktide, filter plate). As to conditions: 0.01 mM ATP, 11 nM GST-Chk1, 40 minutes at 30° C.; read-out: Chk1 IC50. The gist of the method: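 Inhibitor and enzyme reacted 40 min at 30 °C, then stopped with 50 mM phosphoric acid. Phosphorylated peptide captured on filter plates and quantified by scintillation counting.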

For experiment [3], the target named is T2, PDK1 enzyme (Homo sapiens, UniProt O15530).
T2 sequence (O15530 1-556): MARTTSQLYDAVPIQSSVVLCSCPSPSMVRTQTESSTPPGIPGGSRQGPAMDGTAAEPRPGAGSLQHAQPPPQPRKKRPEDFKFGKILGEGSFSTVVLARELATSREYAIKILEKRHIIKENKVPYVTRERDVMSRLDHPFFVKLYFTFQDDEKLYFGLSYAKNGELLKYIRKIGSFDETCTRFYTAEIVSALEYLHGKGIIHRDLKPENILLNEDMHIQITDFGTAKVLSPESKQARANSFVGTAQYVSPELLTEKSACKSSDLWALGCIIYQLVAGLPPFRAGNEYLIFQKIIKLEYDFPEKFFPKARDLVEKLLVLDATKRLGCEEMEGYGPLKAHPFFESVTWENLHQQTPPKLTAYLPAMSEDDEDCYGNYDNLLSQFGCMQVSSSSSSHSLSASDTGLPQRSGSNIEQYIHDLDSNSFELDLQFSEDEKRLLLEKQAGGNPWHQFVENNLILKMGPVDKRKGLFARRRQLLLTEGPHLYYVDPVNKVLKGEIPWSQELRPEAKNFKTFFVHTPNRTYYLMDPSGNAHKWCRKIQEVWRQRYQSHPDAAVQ
Briefly: PDK1 kinase inhibition assay (33P phosphorylation of synthetic peptide, filter plate). As to conditions: 0.01 mM ATP, 60 min at 30° C.; read-out: PDK1 IC50. The gist of the method:
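PDK1 and inhibitor incubated 60 min at 30° C with 0.01 mM ATP plus 33P-γ-ATP, 0.075 mM peptide, 7.5 mM Mg acetate, 0.1 mg/ml BSA in 0.05 M Tris.HCl pH 7.5. Stopped with phosphoric acid; phosphorylated peptide captured on filter plate and counted by scintillation.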

In the case of `CC(C)c1cnn2c(Nc3ccc(S(=O)(=O)N(C)C)cc3)cc(N3CCC(C(N)=O)CC3)nc12` [Example 73], the IC50 in experiment [1] was 1.48 µM; in experiment [2], more than 200 µM; in experiment [3], more than 200 µM.
Take `CC(C)c1cnn2c(Nc3ccc(S(=O)(=O)N(C)C)cc3)cc(N(C)CCCN(C)C)nc12` [Example 74]: the 50% inhibitory concentration (IC50) in experiment [1] is 7.27 µM; in experiment [2] it was 18.6 µM; in experiment [3] it was more than 200 µM.
With `CC(C)c1cnn2c(Nc3ccc(S(=O)(=O)N(C)C)cc3)cc(OC3CCCN(C)C3)nc12` (stereo not drawn) [Example 75], the IC50 in experiment [1] was 0.266 µM; in experiment [2], 6.28 µM; in experiment [3] it was more than 200 µM.
In the case of `CN(C)S(=O)(=O)c1ccc(Nc2cc(Cl)nc3c(Br)cnn23)cc1` [Example 76], the results for the IC50 in experiment [1], in experiment [2] and in experiment [3] were 0.128 µM, more than 200 µM and more than 200 µM, respectively.
As for `CC(C)c1cnn2c(Nc3ccc(S(=O)(=O)NCCN(C)C)cc3)cc(Cl)nc12` [Example 77], the IC50 in experiment [1] was 0.039 µM; in experiment [2] it was more than 200 µM; in experiment [3] it was 9.49 µM.
Consider `CC(C)c1cnn2c(Nc3ccc(S(=O)(=O)N(C)C)cc3)cc(N3CCC(C(=O)O)CC3)nc12` [Example 78], for which the IC50 is 4.79 µM in experiment [1], more than 200 µM in experiment [2] and more than 200 µM in experiment [3].
As for `CC(=O)N[C@H]1CC[C@H](Nc2cc(Nc3ccc(S(=O)(=O)N(C)C)cc3)n3ncc(C(C)C)c3n2)CC1` [Example 79], the IC50 is 0.066 µM in experiment [1], more than 200 µM in experiment [2] and more than 200 µM in experiment [3].
With `CC(C)c1cnn2c(Nc3ccc(S(=O)(=O)N(C)C)cc3)cc(NCC3CCNCC3)nc12` [Example 80], the IC50 was 0.682 µM in experiment [1], more than 200 µM in experiment [2] and 2.56 µM in experiment [3].
As for `CC(C)c1cnn2c(Nc3ccc(S(=O)(=O)N(C)C)cc3)cc(N3CCCC(C(=O)O)C3)nc12` (stereo not drawn) [Example 82], the IC50 in experiment [1] was 4.23 µM; in experiment [2], more than 200 µM; in experiment [3], more than 200 µM.
Turning to `CC[C@H](CO)Nc1cc(Nc2ccc(S(=O)(=O)N(C)C)cc2)n2ncc(C(C)C)c2n1` [Example 83], the IC50 in experiment [1] was 0.14 µM; in experiment [2] it was more than 200 µM; in experiment [3], more than 200 µM.
In the case of `CC(C)c1cnn2c(Nc3ccc(S(C)(=O)=O)nc3)cc(Cl)nc12` [Example 84], the IC50 is 0.298 µM in experiment [1], more than 200 µM in experiment [2] and more than 200 µM in experiment [3].
With `CC(C)c1cnn2c(Nc3ccc(S(=O)(=O)N(C)C)cc3)cc(N[C@H]3CC[C@H](NC(=O)CN(C)C)CC3)nc12` [Example 86], the IC50 in experiment [1] is 0.03 µM; in experiment [2] it was more than 200 µM; in experiment [3], more than 200 µM.
Regarding `CC(C)c1cnn2c(Nc3ccc(S(=O)(=O)N(C)C)cc3)cc(N(C)C3CCN(C)CC3)nc12` [Example 87], the IC50 is 0.84 µM in experiment [1], 16.3 µM in experiment [2] and more than 200 µM in experiment [3].
The corresponding values for `CCN(CC)C(=O)COc1cc(Nc2ccc(S(=O)(=O)N(C)C)cc2)n2ncc(C(C)C)c2n1` [Example 88] are 0.419 µM, more than 200 µM and more than 200 µM.
Regarding `CC(C)c1cnn2c(Nc3ccc(S(=O)(=O)N(C)C)cc3)cc(N3CCCC(CN(C)C)C3)nc12` (stereo not drawn) [Example 89], the IC50 was 8.27 µM in experiment [1], more than 200 µM in experiment [2] and more than 200 µM in experiment [3].
Take `CC(C)COc1cc(Nc2ccc(S(=O)(=O)NCCN(C)C)cc2)n2ncc(C(C)C)c2n1` [Example 90]: the IC50 in experiment [1] was 0.373 µM; in experiment [2] it was 5.42 µM; in experiment [3], more than 200 µM.
Turning to `CC(C)c1cnn2c(Nc3ccc(S(=O)(=O)NCCN(C)C)cc3)cc(OC3CCCCC3)nc12` [Example 91], the IC50 in experiment [1] is 0.881 µM; in experiment [2], 5.36 µM; in experiment [3], more than 200 µM.
With `CC(C)c1cnn2c(Nc3ccc(S(=O)(=O)N(C)C)cc3)cc(N3CCCC(C(=O)N(C)C)C3)nc12` (stereo not drawn) [Example 92], the IC50 was 10.5 µM in experiment [1], more than 200 µM in experiment [2] and more than 200 µM in experiment [3].
